Source: US20110166063A1 (priority 2008, published 2011)
“And” between values parts separate entries of the source, which are not always exact repeats. Equal values may be shown once. Marks after values point to notes of the source that are not given here. Square brackets hold non-standard residues; d marks the D form. Ends that are not written are not given here. Peptide text beside a SMILES is read from it.

Tests used:
[1] = Pharmacokinetic study of V681 (V13AD) conjugates, single IV dose in rats; assay type: in vivo, Sprague-Dawley rats; details: 1.0 mg/kg equivalent protein mass IV
Text: The weight range of the animals was 311-346 grams. All animals were food fasted overnight. […] The predose sample was collected from the JVC.
Following the last collection point, the animals were euthanized.

[2] = target: T1, GPR54 G-Protein coupled receptor (Homo sapiens, UniProt Q969F8); experiment: FLIPR calcium flux agonist assay on GPR54; assay type: cell-based; details: no release incubation; for EC50 / EC50 (nM): agonist activation at GPR54
T1 construct: host or cells: Chem-1 host cells

[3] = Pharmacokinetic study of protegrin conjugates, single IV dose in rats; assay type: in vivo, Sprague-Dawley rats
Experimental: The weight range of the animals was 313-346 grams. All animals were food fasted overnight.
Following the last collection point, the animals were euthanized. Bioanalytical analysis: analysis of the plasma samples was conducted using non-validated LC-MS/MS methods.

[4] = tested on: db/db diabetic mice; experiment: Blood glucose levels in db/db diabetic mice after i.p. injection; assay type: in vivo
Experimental: At different time points after dosing blood glucose levels were measured.
PBS saline solution and Dextran equivalent dose were administrated as negative controls.

[5] = Pharmacokinetic study of BNP conjugates, single IV dose in rats; assay type: in vivo, Sprague-Dawley rats; details: for Cmax: test article in plasma (non-releasable PEG-BNP or native BNP)
Text: All animals were food fasted overnight.
Following the last collection point, the animals were euthanized. […]

[6] = test compound in plasma (non-releasable conjugates, native PG-1), […] equivalent protein mass IV, Mean ± SD
[7] = protegrin-1 in plasma (released or native), […] equivalent protein mass IV
[8] = BNP in plasma (released from conjugate or given as native), 0.459 mg/kg equivalent protein mass IV, rats
[9] = intact C2-FMOC-PEG2-40K-BNP, IV bolus, rats
[10] = rat, in vivo, protegrin-1 in plasma (released or native), 1.6 mg/kg equivalent protein mass IV
[11] = 0.459 mg/kg equivalent protein mass IV, rats
[12] = test article in plasma (non-releasable PEG-BNP), 0.459 mg/kg equivalent protein mass IV, rats

T1 sequence (Q969F8 whole entry): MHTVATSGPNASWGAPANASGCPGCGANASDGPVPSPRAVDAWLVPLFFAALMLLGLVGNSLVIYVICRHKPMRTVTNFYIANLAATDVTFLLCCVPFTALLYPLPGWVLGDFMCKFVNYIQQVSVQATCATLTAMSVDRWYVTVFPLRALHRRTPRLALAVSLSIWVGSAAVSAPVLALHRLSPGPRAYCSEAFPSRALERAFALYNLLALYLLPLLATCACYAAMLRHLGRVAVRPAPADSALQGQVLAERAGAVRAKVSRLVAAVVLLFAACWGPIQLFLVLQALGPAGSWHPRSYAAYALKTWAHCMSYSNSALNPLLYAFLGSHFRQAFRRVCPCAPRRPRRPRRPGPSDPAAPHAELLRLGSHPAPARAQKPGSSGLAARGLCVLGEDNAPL

Compound: CC[C@H](C)[C@H](NC(=O)[C@H](C)NC(=O)[C@H](CCCCN)NC(=O)[C@H](CC(C)C)NC(=O)[C@H](C)NC(=O)[C@@H](NC(=O)[C@H](Cc1c[nH]cn1)NC(=O)[C@H](CC(C)C)NC(=O)[C@@H](NC(=O)[C@@H](NC(=O)[C@H](CCCCN)NC(=O)[C@@H](C)NC(=O)[C@H](C)NC(=O)[C@H](CO)NC(=O)[C@H](CCCCN)NC(=O)[C@H](Cc1ccccc1)NC(=O)[C@@H](NC(=O)[C@H](CCCCN)NC(=O)[C@H](CC(C)C)NC(=O)[C@H](Cc1ccccc1)NC(=O)[C@H](CO)NC(=O)[C@H](CCCCN)NC(=O)[C@H](Cc1c[nH]c2ccccc12)NC(=O)[C@H](CCCCN)NC(C)=O)[C@@H](C)O)[C@@H](C)O)C(C)C)[C@@H](C)O)C(=O)N[C@@H](CO)C(=O)N[C@@H](CO)C(N)=O [V681 (V13AD), V681(V13AD), reference compound] (Ac-KWKSFLKTFKSA[dA]KTVLHTALKAISS-NH2)
- AUCINF [1]: 7210 ± 1430 ng·h/mL
- CL [1]: 2.37 ± 0.433 mL/min/kg
- Cmax [1]: 16500 ± 9670 ng/mL
- MRT [1]: 19.8 ± 4.8 min
- T1/2 [1]: 36.6 ± 23.4 min
- Vss [1]: 0.0477 ± 0.018 L/kg

Compound: CC(C)C[C@H](NC(=O)CNC(=O)[C@H](Cc1ccccc1)NC(=O)[C@H](CO)NC(=O)[C@H](CC(N)=O)NC(=O)[C@H](Cc1c[nH]c2ccccc12)NC(=O)[C@H](CC(N)=O)NC(=O)[C@@H](N)Cc1ccc(O)cc1)C(=O)N[C@@H](CCCNC(=N)N)C(=O)N[C@@H](Cc1ccccc1)C(N)=O [KP10, Kisspeptin-10]
- EC50 [2]: 10 to 14 nM and 10 nM
- Fold change compared to metastin [2]: 1

Compound: [mono]-[mPEG-ButyrALD-30K]-[Kisspeptin-13] (LPNYNWNSFGLRF; also: mono-PEGylated with mPEG-ButyrALD 30K, site not given here; UniProt Q15726 109-121, looked up) [Ald30K-KP13]
- EC50 (nM) [2]: No activity

Compound: ALD40K-PG-1 (RGGRLCYCRRRFCVCVGR-NH2; cysteine pairing not given here; also: mPEG2-butyraldehyde 40K conjugate; UniProt P32194 131-148, looked up) [mPEG2-40K-PG-1, non-releasable conjugate of protegrin-1 with mPEG2-butaraldehyde-40K]
- CL [3, 6]: 0.548 ± 0.207 mL/min/kg
- T1/2 [3, 6]: 648 ± 180 min
- Vss [3, 6]: 0.32 ± 0.131 L/kg

Compound: dextran-butyrALD-40K-insulin [Dex-Ins]
- Blood glucose level, Mean ([4]; Dex-Ins 250 ug/mouse i.p., time 0 hr, N = 4): 495 mg/dL
- Blood glucose level, Mean ([4]; Dex-Ins 250 ug/mouse i.p., time 1 hr, N = 4): 263 mg/dL
- Blood glucose level, Mean ([4]; Dex-Ins 250 ug/mouse i.p., time 2 hr, N = 4): 192 mg/dL
- Blood glucose level, Mean ([4]; Dex-Ins 250 ug/mouse i.p., time 4 hr, N = 4): 462 mg/dL
- Blood glucose level, Mean ([4]; Dex-Ins 250 ug/mouse i.p., time 8 hr, N = 4): 494 mg/dL
- Blood glucose level, Mean ([4]; Dex-Ins 250 ug/mouse i.p., time 24 hr, N = 4): 517 mg/dL
- decrease of db/db mice glucose levels ([4]; at 1 hr and 2 hr after administration, 250 ug/mouse i.p.): 40-60%

Compound: mono-[mPEG2-ButyrAldehyde-40K]-[Kisspeptin-54] (GTSLSPPPESSGSPQQPGLSAPHSRQIPAPQGAVLVQREKDLPNYNWNSFGLRF-NH2; also: mPEG2-ButyrAldehyde 40K conjugate, site not given here; UniProt Q15726 68-121, looked up) [Ald40K-KP54]
- EC50 (nM) [2]: No activity

Compound: (PG-1)-(ALD)22K-(PG-1) (RGGRLCYCRRRFCVCVGR-NH2; cysteine pairing not given here; also: two peptide copies linked by PEG-dibutyraldehyde 2K; UniProt P32194 131-148, looked up) [PG-1-PEG-2K-PG-1, non-releasable di-peptide conjugate with bi-functional PEG-butyraldehyde-2K]
- CL [3, 6]: 3.48 ± 0.455 mL/min/kg
- T1/2 [3, 6]: 438 ± 66 min
- Vss [3, 6]: 0.432 ± 0.0405 L/kg

Compound: [mono]-[4,7-CG-PEG2-FMOC-NHS-40K]-[protegrin-1] (RGGRLCYCRRRFCVCVGR-NH2; cysteine pairing not given here; also: releasable CG-PEG2-FMOC 40K PEG, site not given here; UniProt P32194 131-148, looked up) [CG-PEG2-FMOC-40K-PG-1, releasable PEG conjugate of protegrin-1]
- T1/2 (hr) [3, 7]: 1.95* hr
- Tmax [3, 7]: 1.8 min

Compound: CC[C@H](C)[C@@H]1NC(=O)[C@H](CCCNC(=N)N)NC(=O)[C@H](CC(=O)O)NC(=O)[C@H](CCSC)NC(=O)[C@H](CCCCN)NC(=O)[C@H](CCCNC(=N)N)NC(=O)CNC(=O)[C@H](Cc2ccccc2)NC(=O)[C@@H](NC(=O)CNC(=O)[C@H](CO)NC(=O)CNC(=O)[C@H](CCC(N)=O)NC(=O)[C@@H](NC(=O)[C@H](CCSC)NC(=O)[C@H](CCCCN)NC(=O)[C@@H]2CCCN2C(=O)[C@@H](N)CO)C(C)C)CSSC[C@@H](C(=O)N[C@@H](CCCCN)C(=O)N[C@H](C(=O)N[C@@H](CC(C)C)C(=O)N[C@@H](CCCN=C(N)N)C(=O)N[C@@H](CCCN=C(N)N)C(=O)N[C@@H](Cc2cnc[nH]2)C(=O)O)C(C)C)NC(=O)CNC(=O)[C@H](CC(C)C)NC(=O)CNC(=O)[C@H](CO)NC(=O)[C@H](CO)NC(=O)[C@H](CO)NC(=O)[C@H](CO)NC1=O [BNP, Brain Natriuretic Peptide (BNP-32), reference compound]
- level at 0.03 h ([5]; male, Sprague-Dawley, rat, plasma, 0.03 hr after IV BNP administration, all animals, read-out: plasma concentration at first time point): < 20 ng/mL

Compound: [mono]-[mPEG2-C2-fmoc-NHS-40K]-[BNP-32] [C2-FMOC-PEG2-40K-BNP]
- AUCINF [5, 8]: 162 ng·h/mL
- MRTlast [5, 8]: 110 min
- Tmax ([5]; BNP in plasma (released from conjugate or given as native), 0.459 mg/kg equivalent protein mass IV, rats, 0.459 mg/kg): 18 min and 19.8 min
- time released BNP stayed above 20 ng/mL ([5]; following C2-FMOC-PEG2-40K-BNP IV dosing): 8 h
- Peak concentration of the conjugate in plasma [5, 9]: 1300 ng/mL
- half-life of the conjugate in plasma [5, 9]: 900 min
- time plasma conjugate concentrations remained above 100 ng/mL [5, 9]: 24 h

Compound: Insulin
- Blood glucose level, Mean ([4]; Ins 5 ug/mouse, time 0 hr, N = 5): 510 mg/dL
- Blood glucose level, Mean ([4]; Ins 5 ug/mouse, time 1 hr, N = 5): 265 mg/dL
- Blood glucose level, Mean ([4]; Ins 5 ug/mouse, time 2 hr, N = 5): 352 mg/dL
- Blood glucose level, Mean ([4]; Ins 5 ug/mouse, time 4 hr, N = 5): 587 mg/dL
- Blood glucose level, Mean ([4]; Ins 5 ug/mouse, time 8 hr, N = 5): 538 mg/dL
- Blood glucose level, Mean ([4]; Ins 5 ug/mouse, time 24 hr, N = 5): 538 mg/dL
- Blood glucose level, Mean ([4]; Ins 50 ug/mouse, time 0 hr, N = 5): 445 mg/dL
- Blood glucose level, Mean ([4]; Ins 50 ug/mouse, time 1 hr, N = 5): 210 mg/dL
- Blood glucose level, Mean ([4]; Ins 50 ug/mouse, time 2 hr, N = 5): 150 mg/dL
- Blood glucose level, Mean ([4]; Ins 50 ug/mouse, time 4 hr, N = 5): 550 mg/dL
- Blood glucose level, Mean ([4]; Ins 50 ug/mouse, time 8 hr, N = 5): 558 mg/dL
- Blood glucose level, Mean ([4]; Ins 50 ug/mouse, time 24 hr, N = 5): 541 mg/dL

Compound: CC(C)C[C@H](NC(=O)[C@H](CCCNC(=N)N)NC(=O)CNC(=O)CNC(=O)[C@@H](N)CCCNC(=N)N)C(=O)N[C@H]1CSSC[C@@H](C(=O)N[C@H](C(=O)NCC(=O)N[C@@H](CCCNC(=N)N)C(N)=O)C(C)C)NC(=O)[C@H](C(C)C)NC(=O)[C@@H]2CSSC[C@H](NC(=O)[C@H](Cc3ccc(O)cc3)NC1=O)C(=O)N[C@@H](CCCNC(=N)N)C(=O)N[C@@H](CCCNC(=N)N)C(=O)N[C@@H](CCCNC(=N)N)C(=O)N[C@@H](Cc1ccccc1)C(=O)N2 [Protegrin-1, reference compound]
- AUC(0-inf) [3, 10]: 1160 ± 351 ng·h/mL
- Cmax [3, 10]: 2050 ± 601 ng/mL
- MRT last [3, 10]: 31.2 ± 3 min
- half-life [3, 10]: 21 min
- Tmax ([3]; rat, in vivo, protegrin-1 in plasma (released or native), 1.6 mg/kg equivalent protein mass IV, read-out: Tmax): 1.8 min
- clearance ([3]; rat, in vivo, test compound in plasma (non-releasable conjugates, native PG-1), 1.6 mg/kg equivalent protein mass IV, Mean ± SD): 24.5 mL/min/kg
- Vd ([3]; rat, in vivo, test compound in plasma (non-releasable conjugates, native PG-1), 1.6 mg/kg equivalent protein mass IV, Mean ± SD, read-out: Vss): 0.848 ± 0.36 L/kg

Compound: [mono]-[mPEG-Butyr-ALD-10K]-[BNP-32] [ButyrALD-10K-BNP]
- Cmax [5, 11]: 355 ng/mL
- AUCINF [5, 12]: 96.6 ng·h/mL
- CL [5, 12]: 79.17 mL/min/kg
- MRTlast [5, 12]: 22.1 min
- T½ [5, 12]: 16.3 min
- Vss [5, 12]: 2.27 L/kg

Compound: GTSLSPPPESSGSPQQPGLSAPHSRQIPAPQGAVLVQREKDLPNYNWNSFGLRF-NH2 [KP54, Kisspeptin-54]
- EC50 [2]: 190 nM
- Fold change compared to metastin [2]: 16

Compound: [mono]-[mPEG2-Butyr-ALD-40K]-[BNP-32] [ButyrALD-40K-BNP]
- Cmax [5, 11]: 1410 ng/mL
- AUCINF [5, 12]: 41300 ng·h/mL
- CL [5, 12]: 0.185 mL/min/kg
- MRTlast [5, 12]: 1440 min
- T½ [5, 12]: 1570 min
- Vss [5, 12]: 0.631 L/kg
